Patent US9085520B2, “Composition for treating diabetes and metabolic diseases and a preparation method thereof” (KAOHSIUNG MEDICAL UNIVERSITY, priority 2011, dated 2015)
“Also recorded” adds a separate entry of the source.

Key:
3T3-L1 adipocytes [1] = assay: lipid droplet formation in 3T3-L1 adipocytes (Oil-Red O staining); type: cell-based; details: insulin 3.2×10^−7 M, RSZ, PIO, chalcone derivatives 30 μg/ml, DMEM 25 mM D-glucose, 4 days
Method: After two days of differentiation, 3T3-L1 cells were treated without (control) or with insulin (3.2×10^−7 M), RSZ (30 μg/ml), PIO (30 μg/ml), and chalcone derivatives (30 μg/ml) in DMEM containing 25 mM D-glucose. After 4 days, lipid droplets were observed by Oil-Red O staining (data not shown).

C57BL/6 mice [2] = assay: fasting blood glucose level of HF diet mice; type: in vivo; details: oral 6.75 mg/kg/day, 7 weeks, FIG. 3(a)
From the text: (§1) Please refer to FIG. 2, C57BL/6 mice were grouped as four groups. (a) “Control” group (normal healthy animal group): the mice were fed with normal feed. (b) “High-fat (HF) diet” group (unhealthy negative control group): the mice were fed with high-fat-percentage feed (at least 40% fat) for a long-term period for inducing obesity and metabolic syndromes. (c) “HF diet+pioglitazone” group (clinical administration control group): the mice were fed with high-fat-percentage feed (at least 40% fat) for a long-term period for inducing obesity and metabolic syndromes and simultaneously administered with the clinically anti-diabetes TZD, pioglitazone (oral dosage: 6.75 mg/kg/day). […] The number of mice in the groups (a) to (d) were 5, 5, 6 and 13 respectively.
(§2) The numbers of mice in Experiment 4 were the same as in Experiment 3, and mice were divided as four groups, “control”, “HF diet”, “HF diet+pioglitazone” and “HF diet+compound 12” groups.

C57BL/6 mice [3] = assay: body weight gain of high-fat diet induced obesity mice; type: in vivo; details: HF diet C57BL/6 mice
From the text: as §1
(§3) The method and conditions for performing Experiment 7 were similar to those in Experiments 3 and 4, wherein C57BL/6 mice were grouped as five groups, (a) “Control” group (n=6), (b) “HF diet” group (n=7); (c) “HF diet+pioglitazone” group (oral dosage: 6.75 mg/kg/day pioglitazone, n=8); (d) “HF diet+compound 26×1” group: the mice were fed with high-fat-percentage feed (at least 40% fat) for a long-term period for inducing obesity and metabolic syndromes and simultaneously administered with compound 26 (oral dosage: 6.75 mg/kg/day, n=11); and (e) “HF diet+compound 26×5” group (oral dosage: 33.75 mg/kg/day compound 26, n=12).

C57BL/6 mice [4] = assay: oral glucose tolerance test (OGTT) in HF diet mice; type: in vivo; details: 7 weeks
Method: as §2, §3

3T3-L1 adipocytes [5] = assay: glucose consumption (remaining glucose) in culture medium of 3T3-L1 adipocytes; type: cell-based; details: for glucose absorption activity of adipocytes 3T3-L1 (anti-hyperglycemic ability): FIG. 1, 30 μg/ml, medium glucose 300 mg/dl, remaining glucose after 24 hours
Method: After precursor adipocytes 3T3-L1 were induced as the matured adipocytes, culture medium with glucose (concentration of 300 mg/dl) and drugs were added, and the concentration of the remaining glucose in the culture medium were measured after 24 hours.
Adipose tissues are major sites for postprandial glucose uptake. Therefore, in vitro anti-diabetic screening model based on measuring glucose consumption after 24 hours in culture medium of 3T3-L1 adipocytes was developed. […] Accordingly, 60 chalcone derivatives with and without substitutions on A-ring were examined in our developed model. […] Structure-activity relationship (SAR) analyses data are also determined.

3T3-L1 adipocytes [6] = assay: adipocyte death / toxicity to adipocytes; details: 30 μg/ml, matured 3T3-L1 adipocytes, 24 hours

Row | Molecule | formation of lipid droplets (3T3-L1 adipocytes [1]) | fasting blood glucose level (C57BL/6 mice [2]) | body weight gain (C57BL/6 mice [3]; oral dosage 6.75 mg/kg/day, FIG. 2) | glucose intolerance (OGTT) (C57BL/6 mice [4]; HF diet mice, oral 6.75 mg/kg/day, FIG. 3(b), 6.75 mg/kg/day) | glucose absorption activity of adipocytes 3T3-L1 (anti-hyperglycemic ability) (3T3-L1 adipocytes [5]) | adipocyte death / toxicity to adipocytes (3T3-L1 adipocytes [6]) | body weight / obesity (C57BL/6 mice [3]; oral dosage 6.75 or 33.75 mg/kg/day, FIG. 5) | glucose intolerance / insulin resistance (C57BL/6 mice [4]; HF diet C57BL/6 mice, oral dosage 6.75 or 33.75 mg/kg/day, FIG. 6) | glucose consumption (3T3-L1 adipocytes [5]; Experiment 6, insulin 3.2×10^−7 M, RSZ, PIO 30 μg/ml, DMEM 25 mM D-glucose) | remaining glucose concentration in culture medium after 24 hours (3T3-L1 adipocytes [5]; insulin 3.2 × 10^−17M, culture medium of 3T3-L1 adipocytes after 24 hours, means ± SD, N = 3)
1 | COc1ccc(/C=C/C(=O)c2ccccc2Br)cc1 [Compound 12, (E)-1-(2-bromophenyl)-3-(4-methoxyphenyl)prop-2-en-1-one] | significantly prevent the formation of lipid droplets | significantly inhibit the increase of blood glucose level; also recorded: inhibition of the blood glucose level | significantly inhibit the body weight gain; also recorded: inhibited | significantly inhibit the occurrence of glucose intolerance; also recorded: inhibition of glucose intolerance | best anti-hyperglycemic ability; also recorded: best activity | didn't result in adipocyte death |  |  |  | 
2 | COc1ccc(/C=C/C(=O)c2ccccc2I)cc1 [Compound 26, (E)-1-(2-iodophenyl)-3-(4-methoxyphenyl)prop-2-en-1-one] | significantly prevent the formation of lipid droplets |  |  |  | best anti-hyperglycemic ability | didn't result in adipocyte death | significantly prevents obesity; also recorded: inhibited | significantly prevents obesity and insulin resistance; also recorded: inhibition of glucose intolerance |  | 
3 | Insulin: insulin, positive control in the adipocyte tests | increase the lipid droplets in adipocytes |  |  |  |  |  |  |  | promote glucose consumption | 294 ± 6.3 mg/dL
